According to patent US7687490B2, “2-thioethenyl substituted carbapenem derivatives” (Meiji Seika Kaisha, Ltd., priority 2005, dated 2010):
Values after ≈ are worked out from the molar mass of the structure shown.

Columns and labels:
Assay in all cases: Antimicrobial activity, MIC (Test Example 1)
Assay type in all cases: cell-based
S. pneumoniae R6 = details: Sensitivity Disk agar-N+5% Horse blood, inoculants 10^6 CFU/ml; for MIC: Streptococcus pneumoniae, read-out: minimum inhibitory concentrations (MIC)
Experimental: (§1) The minimum inhibitory concentrations (MIC, μg/ml) of representative compounds, among the novel carbapenem derivatives of the present invention, to various pathogenic bacteria were measured in accordance with the method described in CHEMOTHERAPY, vol. 16, No. 1, 99, 1968. The culture medium for the measurement is Sensitivity Disk agar-N+5% Horse blood, and the amount of inoculants used is 10^6 CFU/ml.

K. pneumoniae GN69 = details: Sensitivity Disk agar-N+5% Horse blood, inoculants 10^6 CFU/ml; for MIC: Klebsiella pneumoniae, read-out: minimum inhibitory concentrations (MIC)
Experimental: as §1

E. coli W4680 = details: Sensitivity Disk agar-N+5% Horse blood, inoculants 10^6 CFU/ml; for MIC: Escherichia coli, read-out: minimum inhibitory concentrations (MIC)
Experimental: as §1

M. catarrhalis W-500 = details: Moraxella catarrhalis, W500, Sensitivity Disk agar-N+5% Horse blood, inoculants 10^6 CFU/ml, read-out: minimum inhibitory concentrations (MIC)
Experimental: as §1

H. influenzae PRC44 = details: Sensitivity Disk agar-N+5% Horse blood, inoculants 10^6 CFU/ml; for MIC: Haemophilus influenzae, read-out: minimum inhibitory concentrations (MIC)
Experimental: as §1

S. pneumoniae PRC53 = details: Sensitivity Disk agar-N+5% Horse blood, inoculants 10^6 CFU/ml; for MIC: Streptococcus pneumoniae, read-out: minimum inhibitory concentrations (MIC)
Experimental: as §1

S. pneumoniae 197 = details: Streptococcus pneumoniae, Sensitivity Disk agar-N+5% Horse blood, inoculants 10^6 CFU/ml, read-out: minimum inhibitory concentrations (MIC)
Experimental: as §1

S. aureus 209P JC-1 = details: Sensitivity Disk agar-N+5% Horse blood, inoculants 10^6 CFU/ml; for MIC: Staphylococcus aureus, read-out: minimum inhibitory concentrations (MIC)
Experimental: as §1

H. influenzae Rd = details: Sensitivity Disk agar-N+5% Horse blood, inoculants 10^6 CFU/ml; for MIC: Haemophilus influenzae, read-out: minimum inhibitory concentrations (MIC)
Experimental: as §1

H. influenzae 870 = details: Sensitivity Disk agar-N+5% Horse blood, inoculants 10^6 CFU/ml; for MIC: Haemophilus influenzae, read-out: minimum inhibitory concentrations (MIC)
Experimental: as §1

Compound	MIC (S. pneumoniae R6)	MIC (K. pneumoniae GN69)	MIC (E. coli W4680)	MIC (M. catarrhalis W-500)	MIC (H. influenzae PRC44)	MIC (S. pneumoniae PRC53)	MIC (S. pneumoniae 197)	MIC (S. aureus 209P JC-1)	MIC (H. influenzae Rd)	MIC (H. influenzae 870)	minimum inhibitory concentrations (MIC) (S. pneumoniae R6)	minimum inhibitory concentrations (MIC) (K. pneumoniae GN69)	minimum inhibitory concentrations (MIC) (E. coli W4680)	minimum inhibitory concentrations (MIC) (H. influenzae PRC44)	minimum inhibitory concentrations (MIC) (S. pneumoniae PRC53)	minimum inhibitory concentrations (MIC) (S. aureus 209P JC-1)	minimum inhibitory concentrations (MIC) (H. influenzae Rd)	minimum inhibitory concentrations (MIC) (H. influenzae 870)
C[C@@H](O)[C@H]1C(=O)N2C(C(=O)[O-])=C(S/C=C\c3scnc3CO)[C@H](C)[C@H]12.[Na+] [Example 41, Sodium (1R,5S,6S)-6-((1R)-1-hydroxyethyl)-2-[[(Z)-2-(4-hydroxymethylthiazol-5-yl)ethen-1-yl]thio]-1-methyl-1-carbapen-2-em-3-carboxylate]	0.008 µg/mL	0.5 µg/mL	1 µg/mL	0.063 µg/mL	0.125 µg/mL	0.063 µg/mL	0.125 µg/mL	0.031 µg/mL	0.031 µg/mL	0.125 µg/mL								
C[C@@H](O)[C@H]1C(=O)N2C(C(=O)[O-])=C(S/C=C\c3scnc3C(=O)N(C)C)[C@H](C)[C@H]12.[Na+] [Example 43, Sodium (1R,5S,6S)-2-[[(Z)-2-(4-N,N-dimethylcarbamoylthiazol-5-yl)ethen-1-yl]thio]-6-((1R)-1-hydroxyethyl)-1-methyl-1-carbapen-2-em-3-carboxylate]											0.008 µg/mL	4 µg/mL	4 µg/mL	0.125 µg/mL	0.063 µg/mL	0.063 µg/mL	0.031 µg/mL	0.25 µg/mL
C[C@@H](O)[C@H]1C(=O)N2C(C(=O)[O-])=C(S/C=C\c3nc(CO)cs3)[C@H](C)[C@H]12.[Na+] [Example 44, Sodium (1R,5S,6S)-6-((1R)-1-hydroxyethyl)-2-[[(Z)-2-(4-hydroxymethylthiazol-2-yl)ethen-1-yl]thio]-1-methyl-1-carbapen-2-em-3-carboxylate]	0.008 µg/mL	4 µg/mL	4 µg/mL	0.063 µg/mL	0.063 µg/mL	0.063 µg/mL	0.25 µg/mL	0.031 µg/mL	0.031 µg/mL	0.125 µg/mL								
C[C@@H](O)[C@H]1C(=O)N2C(C(=O)[O-])=C(S/C=C/c3scnc3CO)[C@H](C)[C@H]12.[Na+] [Example 61, Sodium (1R,5S,6S)-6-((1R)-1-hydroxyethyl)-2-[[(E)-2-(4-hydroxymethylthiazol-5-yl)ethen-1-yl]thio]-1-methyl-1-carbapen-2-em-3-carboxylate]	0.031 µg/mL	8 µg/mL	8 µg/mL	0.063 µg/mL	0.125 µg/mL	0.25 µg/mL	1 µg/mL	0.063 µg/mL	0.031 µg/mL	0.125 µg/mL								
C[C@@H](O)[C@H]1C(=O)N2C(C(=O)[O-])=C(S/C=C\c3ncsc3CO)[C@H](C)[C@H]12.[Na+] [Example 78, Sodium (1R,5S,6S)-6-((1R)-1-hydroxyethyl)-2-[[(Z)-2-(5-hydroxymethylthiazol-4-yl)ethen-1-yl]thio]-1-methyl-1-carbapen-2-em-3-carboxylate]	0.008 µg/mL	8 µg/mL	8 µg/mL	0.25 µg/mL	0.063 µg/mL	0.063 µg/mL	0.25 µg/mL	0.031 µg/mL	0.031 µg/mL	0.125 µg/mL								
C[C@@H](O)[C@H]1C(=O)N2C(C(=O)O)=C(SCCN=CN)C[C@H]12 [IPM, imipenem, reference compound]	0.008 µg/mL (≈ 0.0267 µM)	0.125 µg/mL (≈ 0.418 µM)	0.125 µg/mL (≈ 0.418 µM)	0.063 µg/mL (≈ 0.21 µM)	16 µg/mL (≈ 53.4 µM)	0.125 µg/mL (≈ 0.418 µM)	1 µg/mL (≈ 3.34 µM)	0.016 µg/mL (≈ 0.0534 µM)	1 µg/mL (≈ 3.34 µM)	4 µg/mL (≈ 13.4 µM)								
